{
  "source": "patent US20230089723A1",
  "about": "“AMINO ACID COMPOSITIONS AND METHODS FOR MUSCLE AND MYOTUBE MODULATION” (AXCELLA HEALTH INC., priority 2020, published 2023)",
  "key": {"[1]": {"tested_on": "differentiating cultured human myotubes (primary myoblasts W018)", "experiment": "In vitro model for myogenesis: myotube fusion index (modified MyoScreen)", "assay_type": "cell-based", "conditions": "myotubes in DMEM with 0.15× plasma amino acid profile, treated with amino acids at 1× human plasma concentration, 4 days", "description": "(§1) Primary myoblasts (W018) were amplified and seeded into CYTOOplates on Day 0. After one day differentiation was started in DMEM/F12+GlutaMAX supplemented with 0.1% Horse Serum.\nFusion Index Analysis after 4 Days by Fluorescence Microscopy\nImages were acquired with Operetta HCS platform (Perkin Elmer) using a 10× objective in two fluorescent channels: nuclei, Troponin T. Image processing and analysis were performed with a dedicated algorithm developed on Acapella high Content imaging Software (Perkin Elmer) at CYTOO. Nuclei within myotubes were counted under myotube mask generated by troponin co-stain and fusion index was calculated as the percentage of fused nuclei in myotube over total nuclei. Statistical analysis was done with T-Test relative to the untreated condition."}, "[2]": {"tested_on": "cultured human myotubes (primary myoblasts W018)", "experiment": "In vitro model for muscle protein synthesis: Click-iT OPP incorporation in myotubes (modified MyoScreen)", "assay_type": "cell-based", "conditions": "myotubes in DMEM with 0.15× plasma amino acid profile, treated with amino acids at 1× human plasma concentration, 4 days; Click-iT signal in myotube mask", "description": "The ability of amino acids to influence protein synthesis in muscle cells was assessed using a modified version of MyoScreen (Cytoo SA, Grenoble Fr).\nas §1\nProtein Synthesis after 4 Days by Fluorescence Microscopy\nAfter 4 days of culture, cells were washed twice with PBS 1× (Gibco), fixed with 4% Paraformaldehyde, and washed twice with PBS 1× (100 μL). Cells were then permeabilized by 0.5% Triton X-100 followed by three washes with PBS. After fixation, cells were immuno-stained for troponin to identify specific myotubes. […] In the Click-iT assay, 0-propargyl-puromycin (OPP) is efficiently incorporated into newly translated proteins in vivo for 30 minutes and then fluorescently labeled with Alexa Fluor® dye, which can be detected by high-content imaging (Molecular Devices). Click-iT signal was restricted to the myotube mask generated by the troponin co-stain. Data was collected as Click-iT mean intensity in myotubes (au). Images were acquired with Operetta HCS platform (Perkin Elmer) using a 10× objective in three fluorescent channels: nuclei, Troponin T, and Click-iT. Image processing and analysis were performed with a dedicated algorithm developed on Acapella high Content imaging Software (Perkin Elmer) at CYTOO. […]"}},
  "data": [
    {"smiles": "N[C@@H](CC(=O)O)C(=O)O", "note": "[D, Aspartic acid/Aspartate]", "values": [
      {"measurement": "Fusion Index median", "setting": "[1]", "result": 0.05657},
      {"measurement": "Protein Synthesis median", "setting": "[2]", "result": 0.1078}
    ]}
  ]
}
